From paper PMC9798496 (ACS Omega, 2022)
Entries after “also recorded” stand apart in the source; their conditions may differ.

Test system: healthy mice
Experiment: MicroPET/CT biodistribution in healthy mice
Type: in vivo
Conditions: PET/CT

uptake in the center of the brain: about 1.6 SUV
uptake in the center of the heart: about 2.7 SUV
brain uptake of [18F]FDG relative to [18F]Glc1 (center of the brain): about 20 times
heart uptake of [18F]FDG relative to [18F]Glc1 (center of the heart): about 14 times
SMILES: OC[C@H]1OC(O)[C@H](F)[C@@H](O)[C@@H]1O (some centres unmarked) [[^18F]FDG, fluorodeoxyglucose]
site of uptake, metabolism and elimination: typical metabolism in the heart, brain, and brown fat; also recorded: uptake was observed in the brain and heart
